# Several values for one entry are separate records, joined by “and”; a condition that tells them apart may be missing. Identical values can stand only once. Like-named read-outs stand apart in the source and are kept apart here.
# Molecular target: HIV-1LAI envelope gp120 (Human immunodeficiency virus type 1 group M subtype B, UniProt P03377)
# Format: binding
# Conditions: for Relative % of Control: mean of two syntheses and binding experiments ± average deviation, wild-type = 100%; for Counts per 20′ Average-background: CCR5 18-mer scan, radiolabeled HIV-1LAI gp120; for Binding Results For Window Length (counts bound-background), 9: 9-mer starting at the first residue of the printed sequence; for Binding Results For Window Length (counts bound-background), 12: 12-mer starting at the first residue of the printed sequence; for Binding Results For Window Length (counts bound-background), 15: 15-mer starting at the first residue of the printed sequence; for number of radioactive decays (counts) counted: human CD4 21-mer scan, empty control 2075
# [1] = CXCR4 18-mer scan, background subtracted, empty control 0
# [2] = CXCR4 18-mer scan, empty control 412
# [3] = Panel D, 9-mers and 12-mers of CD4, empty control […]
# [4] = Panel E, 9-mers and 12-mers of CD4, empty control 571
# [5] = Panel C, 15-mers and 18-mers of CD4, empty control 556
# [6] = STRL33 18-mer scan, background subtracted, first of two count columns
# [7] = STRL33 18-mer scan, background subtracted, second of two count columns
# [8] = Panel F, sequential alanine replacements of CD4 polypeptides, duplicate series, empty control 569
# [9] = Panel B, 15-mers and 18-mers of CD4, empty control 575
# [10] = STRL33 amino terminus, background subtracted
# [11] = Panel A, 21-mers of CD4, empty control 515 and 617
sequence,measurement,setting,value
MEGISIYTSDNYTEAMGS,Relative % of Control,CXCR4 (1-18) alanine variants,56 ± 7%
ILPGIVILSCYCIIISKL [CXCR4 segment 209-226],radioactive counts recorded in twenty minutes,[1],192 counts
same,radioactive counts recorded in twenty minutes,[2],604 counts
LLQGQSLTLTLE,COUNTS of radiolabeled gp120 retained,[3],1320 counts
SIVYKKEGEQVE,COUNTS of radiolabeled gp120 retained,[4],543 counts
KVEFKIDIVVLAFQKASS,COUNTS of radiolabeled gp120 retained,[5],1011 counts
LSKGKRGGHSSVSTESES,radioactive counts recorded in twenty minutes,[1],185 counts
same,radioactive counts recorded in twenty minutes,[2],597 counts
AFLQFSKVFLPCMYLVVF [STRL33 segment 25-42],radioactive counts recorded in twenty minutes,[6],1421.5 counts
same,radioactive counts recorded in twenty minutes,[7],1359.5 counts
AHLLQGQSLTLTLES,COUNTS of radiolabeled gp120 retained,[8],8602 counts and 5826 counts
SIFQQEAPERASSVYTRS [CCR5 segment 325-],Counts per 20′ Average-background,background subtracted,100 counts per 20′
EDQKEEVQLLVFGLTANS,COUNTS of radiolabeled gp120 retained,[9],3416 counts
LVFGLTANS,COUNTS of radiolabeled gp120 retained,[3],522 counts
KIDIVVLAFQKA,COUNTS of radiolabeled gp120 retained,[4],689 counts
SDTHLLQGQ,COUNTS of radiolabeled gp120 retained,[3],526 counts
VQLLVFGLTANS,COUNTS of radiolabeled gp120 retained,[3],747 counts
DTHLLQGQSLTLTLE,COUNTS of radiolabeled gp120 retained,[9],1622 counts
LTVPFWAHYAAAQWDFGN [CCR5 segment 81-98],Counts per 20′ Average-background,background subtracted,306 counts per 20′
ADYQVSSPIYDINYYTSE [CCR5 (1-18) variant M1A],Relative % of Control,CCR5 (1-18) alanine variants,167 ± 4%
YICEVEDQKEEVQLLVFG,COUNTS of radiolabeled gp120 retained,[9],4611 counts
NDSSQEEHQAFLQFS,"Binding Results For Window Length (counts bound-background), 9",[10],180 counts
same,"Binding Results For Window Length (counts bound-background), 12",[10],497 counts
same,"Binding Results For Window Length (counts bound-background), 15",[10],6160 counts
LFFLLTVPFWAHYAAAQW [CCR5 segment 77-94],Counts per 20′ Average-background,background subtracted,173 counts per 20′
VCYSVIIKTLLHAGGFQK [STRL33 segment 209-226],radioactive counts recorded in twenty minutes,[6],1334.5 counts
same,radioactive counts recorded in twenty minutes,[7],1143.5 counts
FKTSAQHALTSVSRGSSL,radioactive counts recorded in twenty minutes,[1],173 counts
same,radioactive counts recorded in twenty minutes,[2],585 counts
IVYKKEGEQ,COUNTS of radiolabeled gp120 retained,[4],534 counts
LLLTIPDFIFANVSEADD,radioactive counts recorded in twenty minutes,[1],1006 counts
same,radioactive counts recorded in twenty minutes,[2],1418 counts
IFYHKLQSLTDVFLVNLP [STRL33 segment 57-74],radioactive counts recorded in twenty minutes,[6],1275.5 counts
same,radioactive counts recorded in twenty minutes,[7],1256.5 counts
FPLIIKNLK,COUNTS of radiolabeled gp120 retained,[3],601 counts
PLIIKNLKIEDSDTY,COUNTS of radiolabeled gp120 retained,[9],661 counts
TELLQGASLTLTLES,COUNTS of radiolabeled gp120 retained,[8],4238 counts
RLHLSVADLLFVITLPFW [CXCR4 segment 77-94],radioactive counts recorded in twenty minutes,[1],136 counts
same,radioactive counts recorded in twenty minutes,[2],548 counts
VLQNQKKVE,COUNTS of radiolabeled gp120 retained,[4],556 counts
LKNKEVSVKPVTQDPKLQMGK [human CD4 256-276],number of radioactive decays (counts) counted,,2288 counts
AFQKASSIVYKKEGEQVE,COUNTS of radiolabeled gp120 retained,[5],514 counts
TVNLYSSVLILAFISLDR,radioactive counts recorded in twenty minutes,[1],242 counts
same,radioactive counts recorded in twenty minutes,[2],654 counts
GFSSFNDSSQEEEQAFLQ,"Binding Results For Window Length (counts bound-background), 9",[10],171 counts
same,"Binding Results For Window Length (counts bound-background), 12",[10],480 counts
same,"Binding Results For Window Length (counts bound-background), 15",[10],270 counts
same,"Binding Results For Window Length (counts bound-background), 18","STRL33 amino terminus, 18-mer starting at the first residue of the printed sequence, background subtracted",1639 counts
NLKIEDSDTYICEVE,COUNTS of radiolabeled gp120 retained,[9],1160 counts
VFGLTANSD,COUNTS of radiolabeled gp120 retained,[3],549 counts
EDSDTYICEVEDQKE,COUNTS of radiolabeled gp120 retained,[9],815 counts
VLAFQKASSIVY,COUNTS of radiolabeled gp120 retained,[4],548 counts
KNLKIEDSDTYI,COUNTS of radiolabeled gp120 retained,[3],523 counts
LWDQGNFPLIIKNLKIED,COUNTS of radiolabeled gp120 retained,[9],582 counts
PLIIKLNKIEDSDTYICEVED,COUNTS of radiolabeled gp120 retained,[11],20145 counts
LTSVSRGSSLKILSKGKR,radioactive counts recorded in twenty minutes,[1],183 counts
same,radioactive counts recorded in twenty minutes,[2],595 counts
SDTYICEVEDQKEEVQLL,COUNTS of radiolabeled gp120 retained,[9],870 counts
LPGIIFTRSQKEGLHYTC,Counts per 20′ Average-background,background subtracted,118 counts per 20′
VLQNQKKVEFKIDIV,COUNTS of radiolabeled gp120 retained,[5],605 counts
EKLTGSGEL,COUNTS of radiolabeled gp120 retained,[4],541 counts
LIIKNLKIEDSDTYICEV,COUNTS of radiolabeled gp120 retained,[9],634 counts
IRSTHWEYYAMTSFHYTI,radioactive counts recorded in twenty minutes,[6],1571.5 counts
same,radioactive counts recorded in twenty minutes,[7],1807.5 counts
GLVGNSLVLVISIFYHKL [STRL33 segment 45-62],radioactive counts recorded in twenty minutes,[6],164.5 counts
same,radioactive counts recorded in twenty minutes,[7],95.5 counts
KLSHSKGHQKRKALKTTV [CXCR4 segment 225-242],radioactive counts recorded in twenty minutes,[1],130 counts
same,radioactive counts recorded in twenty minutes,[2],542 counts
NLKIEDSDTYIC,COUNTS of radiolabeled gp120 retained,[3],639 counts
KASSIVYKK,COUNTS of radiolabeled gp120 retained,[4],498 counts
KVEFKIDIVVLAFQK,COUNTS of radiolabeled gp120 retained,[5],1051 counts
EEAQLLVFGLTANSD,COUNTS of radiolabeled gp120 retained,[8],18124 counts and 16296 counts
THLLQGQSLTLALES,COUNTS of radiolabeled gp120 retained,[8],11699 counts and 8147 counts
EFSFPLAFT,COUNTS of radiolabeled gp120 retained,[4],658 counts
CEVEDQKEEVQL,COUNTS of radiolabeled gp120 retained,[3],561 counts
LPLADLVFVCTLPFWAYA [STRL33 segment 73-90],radioactive counts recorded in twenty minutes,[6],557.5 counts
same,radioactive counts recorded in twenty minutes,[7],960.5 counts
MEGISIYTSDNYAEEMGS,Relative % of Control,CXCR4 (1-18) alanine variants,70 ± 6%
QAERASSSKSWITFDLINKEV [human CD4 241-261],number of radioactive decays (counts) counted,,2588 counts
ASSIVYKKEGEQ,COUNTS of radiolabeled gp120 retained,[4],523 counts
PLAFTVEKL,COUNTS of radiolabeled gp120 retained,[4],597 counts
QGNFPLIIK,COUNTS of radiolabeled gp120 retained,[3],508 counts
NWYFGNFLCKAVHVIYTV,radioactive counts recorded in twenty minutes,[1],96 counts
same,radioactive counts recorded in twenty minutes,[2],508 counts
LVFFQKHIAKRFCKCCSI,Counts per 20′ Average-background,background subtracted,76 counts per 20′
CEVEDQKEE,COUNTS of radiolabeled gp120 retained,[3],555 counts
DRYLAIVHATNSQRPRKL,radioactive counts recorded in twenty minutes,[1],168 counts
same,radioactive counts recorded in twenty minutes,[2],580 counts
ANSDTHLLQ,COUNTS of radiolabeled gp120 retained,[3],642 counts
GNFPLIIKNLKI,COUNTS of radiolabeled gp120 retained,[3],547 counts
TCTVLQNQKKVEFKI,COUNTS of radiolabeled gp120 retained,[5],510 counts
KIDIVVLAFQKASSIVYK,COUNTS of radiolabeled gp120 retained,[5],779 counts
IDIVVLAFQ,COUNTS of radiolabeled gp120 retained,[4],691 counts
GEQVEFSFP,COUNTS of radiolabeled gp120 retained,[4],697 counts
EFKIDIVVLAFQ,COUNTS of radiolabeled gp120 retained,[4],659 counts
HLLQGQSLT,COUNTS of radiolabeled gp120 retained,[3],564 counts
MCKSLLGIYTINFYTSML,radioactive counts recorded in twenty minutes,[6],1505.5 counts
same,radioactive counts recorded in twenty minutes,[7],1283.5 counts
PLAFTVEKLTGSGELWWQ,COUNTS of radiolabeled gp120 retained,[5],650 counts
VEKLTGSGE,COUNTS of radiolabeled gp120 retained,[4],585 counts
NFPLIIKNLKIE,COUNTS of radiolabeled gp120 retained,[3],647 counts
ESNIKVLPTWSTPVQPMALIV [human CD4 381-401],number of radioactive decays (counts) counted,,1992 counts
QGNFPLIIKNLK,COUNTS of radiolabeled gp120 retained,[3],533 counts
VEFKIDIVVLAFQKASSI,COUNTS of radiolabeled gp120 retained,[5],819 counts
YQKKLRSMTDKYRLHLSV [CXCR4 segment 65-82],radioactive counts recorded in twenty minutes,[1],99 counts
same,radioactive counts recorded in twenty minutes,[2],511 counts
PQIIYGNVFNLDKLICGY,radioactive counts recorded in twenty minutes,[6],−18.5 counts
same,radioactive counts recorded in twenty minutes,[7],−37.5 counts
KEGEQVEFSFPLAFT,COUNTS of radiolabeled gp120 retained,[5],3253 counts
YICEVEDQKEEV,COUNTS of radiolabeled gp120 retained,[3],734 counts
DTYICEVEDQKEEVQ,COUNTS of radiolabeled gp120 retained,[9],1071 counts
LVMGYQKKLRSMTDKYRL [CXCR4 segment 61-78],radioactive counts recorded in twenty minutes,[1],105 counts
same,radioactive counts recorded in twenty minutes,[2],517 counts
LKIEDSDTYICE,COUNTS of radiolabeled gp120 retained,[3],635 counts
KRGGHSSVSTESESSSFH [CXCR4 segment 333-350],radioactive counts recorded in twenty minutes,[1],167 counts
same,radioactive counts recorded in twenty minutes,[2],579 counts
IVYKKEGEQVEFSFPLAFTVE,COUNTS of radiolabeled gp120 retained,[11],15620 counts
FLPCMYLVVFVCGLVGNS [STRL33 segment 33-50],radioactive counts recorded in twenty minutes,[6],605.5 counts
same,radioactive counts recorded in twenty minutes,[7],372.5 counts
VQLLVFGLTANSDTH,COUNTS of radiolabeled gp120 retained,[9],1006 counts
VYKKEGEQVEFSFPL,COUNTS of radiolabeled gp120 retained,[5],714 counts
QNQKKVEFKIDIVVL,COUNTS of radiolabeled gp120 retained,[5],636 counts
MEGISIYTSANYTEEMGS,Relative % of Control,CXCR4 (1-18) alanine variants,71 ± 8%
KIDIVVLAFQKASSI,COUNTS of radiolabeled gp120 retained,[5],956 counts
VLAFQKASSIVYKKEGEQVEF,COUNTS of radiolabeled gp120 retained,[11],1793 counts
same,number of radioactive decays (counts) counted,,3566 counts
SFPLAFTVEKLTGSGELW,COUNTS of radiolabeled gp120 retained,[5],656 counts
SVITWVVAVFASLPGIIF,Counts per 20′ Average-background,background subtracted,46 counts per 20′
TANSDTHLL,COUNTS of radiolabeled gp120 retained,[3],554 counts
TVTFGVVTSVITWVVAVF,Counts per 20′ Average-background,background subtracted,−25 counts per 20′

# — patent publication US20030068615A1, “Polypeptides that bind HIV gp120 and related nucleic acids, antibodies, compositions, and methods of use” (priority 1999, published 2003)
